Read-outs that look alike come from different tables or passages of the source.
Assays:
NKCC1 [1] = biological target: T1, NKCC1 (Homo sapiens, UniProt P55011); assay: Chloride kinetic assay (Cl-sensitive YFP) in NKCC1-transfected HEK293 cells; assay type: cell-based; details: for NKCC1 Inhibition % 10 μM HEK Chloride YFP assay / inhibition at 10 µM: NKCC1-transfected HEK293; for inhibition at 10 µM: read-out: NKCC1 Inhibition % 10 μM HEK Chloride YFP assay
T1 construct: expressed in transfected cells; host or cells: HEK293
T1 sequence (P55011 1-1212): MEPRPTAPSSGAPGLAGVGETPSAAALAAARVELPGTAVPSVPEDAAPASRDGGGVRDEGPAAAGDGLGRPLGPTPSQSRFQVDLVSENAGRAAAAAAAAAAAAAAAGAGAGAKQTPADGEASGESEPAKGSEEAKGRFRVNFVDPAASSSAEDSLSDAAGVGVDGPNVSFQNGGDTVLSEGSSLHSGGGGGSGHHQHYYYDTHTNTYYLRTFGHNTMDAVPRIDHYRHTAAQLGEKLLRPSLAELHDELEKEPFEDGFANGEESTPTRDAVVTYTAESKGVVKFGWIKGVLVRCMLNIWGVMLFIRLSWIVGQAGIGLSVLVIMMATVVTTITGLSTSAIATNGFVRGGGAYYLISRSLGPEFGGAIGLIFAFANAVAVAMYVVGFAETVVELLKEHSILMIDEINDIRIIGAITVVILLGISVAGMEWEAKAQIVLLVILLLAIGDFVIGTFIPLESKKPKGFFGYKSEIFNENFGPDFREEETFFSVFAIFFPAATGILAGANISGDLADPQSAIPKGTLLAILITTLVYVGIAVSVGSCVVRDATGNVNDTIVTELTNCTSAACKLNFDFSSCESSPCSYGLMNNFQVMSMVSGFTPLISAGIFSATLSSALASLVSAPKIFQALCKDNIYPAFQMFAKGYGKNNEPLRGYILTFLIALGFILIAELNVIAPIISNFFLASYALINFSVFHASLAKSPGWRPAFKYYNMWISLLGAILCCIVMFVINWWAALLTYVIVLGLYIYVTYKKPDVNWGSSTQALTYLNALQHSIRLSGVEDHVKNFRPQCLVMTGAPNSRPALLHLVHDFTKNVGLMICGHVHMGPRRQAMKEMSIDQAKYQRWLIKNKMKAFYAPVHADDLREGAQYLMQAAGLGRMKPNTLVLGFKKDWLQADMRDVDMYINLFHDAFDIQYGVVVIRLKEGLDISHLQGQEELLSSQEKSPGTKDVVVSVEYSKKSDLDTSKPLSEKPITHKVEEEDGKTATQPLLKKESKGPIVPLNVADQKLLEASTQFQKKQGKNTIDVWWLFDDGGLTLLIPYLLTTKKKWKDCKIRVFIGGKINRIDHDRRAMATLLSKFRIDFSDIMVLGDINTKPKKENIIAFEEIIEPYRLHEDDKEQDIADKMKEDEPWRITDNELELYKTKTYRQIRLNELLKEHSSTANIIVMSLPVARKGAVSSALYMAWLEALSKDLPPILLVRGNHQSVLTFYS
Method: FIG. 1: In vitro testing of the NKCC1 inhibitors in the chloride kinetic assay a) Example traces obtained in the chloride kinetic assay on HEK cells transfected with the YFP (mock) or with YFP and NKCC1. The arrow indicates the addition of NaCl (final concentration 74 mM) used to initiate the flux assay. b) Quantification of the effect of bumetanide (10 μM and 100 μM) or furosemide (10 μM and 100 μM) in the chloride kinetic assay on mock or NKCC1-transfected HEK293 cells. Data represents mean±sem from 5 independent experiments. c) Quantification of the effect of bumetanide and furosemide and 2 selected compounds (3.8, 3.17) in the chloride kinetic assay on NKCC1-transfected HEK293 cells. Data represents mean±sem from 5 independent experiments, and they are represented as % of the controls. *P<0.05, **P<0.01, ***P<0.001 Kruskal-Wallis Anova (Dunn's Post hoc Test); ###P<0.001 two-tailed unpaired Student t-test.
To screen in vitro the compounds efficiency in blocking NKCC1, a functional NKCC1 transporter assay was performed by measuring variation of Cl^− ion concentration in the cell through a Cl^− sensitive membrane-tagged yellow fluorescent protein (mbYFPQS, Addgene). mbYFPQS fluorescence is inversely dependent on the concentration of Cl^− inside the cell thus allowing an indirect estimation of the Cl^− transporter activity. In particular, HEK293 cells were transfected with NKCC1 or mock construct (control) together with the Cl^− sensitive YFP. After 2 DIV, the cells were treated with bumetanide and furosemide (as positive controls) or with each of the tested compounds of the invention in a Cl^− free medium. After 30 min, the inhibitory activity of the compounds was tested by monitoring fluorescence upon application of NaCl (FIG. 1a). Transported by NKCC1, Cl binds the YFP, leading to a fluorescence decrease. […] With the Cl kinetic assay, the NKCC1 inhibitory activity of the selected compounds was tested (FIG. 1c).

NKCC1 [2] = assay: Calcium kinetic assay in primary cultures of immature hippocampal neurons; assay type: cell-based; details: for NKCC1 Inhibition % 10 μM Neurons Calcium kinetic assay: immature neurons 3 DIV
Method: FIG. 2: In vitro testing of the NKCC1 inhibitors in a calcium kinetic assay. a) Example traces of fluorescence levels upon application of GABA (100 μM) and KCl (90 mM) used to trigger calcium influx in primary neuronal cultures treated after 3 days in culture (3 DIV) with vehicle, bumetanide, furosemide and compounds 3.8, 3.13 and 3.17 in the calcium kinetic assay. b) Quantification of the average fluorescence increase upon GABA application normalized to the increase upon KCl application in neurons treated with bumetanide, furosemide and 3 exemplary compounds (3.8, 3.13, 3.17) (10 μM, 100 μM). Data represents mean±sem from 5 independent experiments, and they are presented as % of the control. *P<0.05, **P<0.01, ***P<0.001 Kruskal-Wallis Anova (Dunn's Post hoc Test).
Next, the compounds of the invention were tested for their ability to revert the depolarizing GABAergic signaling in immature neurons. This effect was indirectly measured as calcium influx into the cells with an in vitro calcium kinetic assay in primary cultures of hippocampal neurons. The calcium kinetic assay exploits the physiological, endogenous, high expression of NKCC1 in immature neurons, which causes depolarizing actions of GABA and can activate voltage-gated Ca^2+ channels. Thus, in immature neurons, a compound that blocks NKCC1 is predicted to inhibit Ca^2+ responses upon GABA application. Immature neurons were cultured for 3 days in vitro (3 DIV) and loaded for 15 min with a calcium-sensitive dye (Fluo4). Then, the neurons were treated with bumetanide and furosemide (as positive controls) or with each of the selected compounds for 15 min. As a functional readout, the fluorescence level was monitored in these cultures before and after application of GABA (100 μM, for 20 sec). To test for neuronal viability at the end of the experiment, KCl was applied (90 mM, for 40 sec), which strongly depolarizes neurons, causing high activation of voltage-gated Ca^2+ channels in live cells. To quantify how bumetanide, furosemide, and selected compounds influenced NKCC1 inhibition, the fluorescence values were normalized upon GABA application to the fluorescence levels upon KCl application in treated neurons.

Compound	NKCC1 Inhibition % 10 μM HEK Chloride YFP assay (NKCC1 [1]; Table 1)	NKCC1 Inhibition % 10 μM HEK Chloride YFP assay (NKCC1 [1]; Table 2)	inhibition at 10 µM (NKCC1 [1]; Table 1) [%]	NKCC1 Inhibition % 10 μM Neurons Calcium kinetic assay (NKCC1 [2]; Table 1) [%]	NKCC1 Inhibition % 10 μM Neurons Calcium kinetic assay (NKCC1 [2]; Table 2) [%]	other results
CC(C)(C)CCNc1cc(Cl)c(C(=O)O)cc1S(N)(=O)=O [Compound 2.5, 2-chloro-4-(3,3-dimethylbutylamino)-5-sulfamoyl-benzoic acid]	Inactive	Inactive	–	–	–	–
CC(C)(C)CCNc1ccc(C(=O)O)cc1S(N)(=O)=O [Compound 2.9, 4-(3,3-dimethylbutylamino)-3-sulfamoyl-benzoic acid]	–	–	1	25	25	–
CCCCCCNc1ccc([N+](=O)[O-])cc1S(N)(=O)=O [Compound 1.7, 2-(hexylamino)-5-nitro-benzenesulfonamide]	–	–	25	36	36	–
CCCCNc1ccc([N+](=O)[O-])cc1S(N)(=O)=O [Compound 1.6, 2-(butylamino)-5-nitro-benzenesulfonamide]	–	–	11	–	–	–
CC(C)(C)CCNc1ccc([N+](=O)[O-])cc1S(N)(=O)=O [Compound 1.9, 2-(3,3-dimethylbutylamino)-5-nitro-benzenesulfonamide]	–	–	5	–	–	–
CN(C)S(=O)(=O)c1cc(C(=O)O)ccc1NCCC(C)(C)C [Compound 3.14, 4-(3,3-dimethylbutylamino)-3-(dimethylsulfamoyl)benzoic acid]	Inactive	Inactive	–	11	11	–
CCCCNc1cc(Cl)c(C(=O)O)cc1S(N)(=O)=O [Compound 2.2, 4-(butylamino)-2-chloro-5-sulfamoyl-benzoic acid]	–	–	36	2	2	–
CCCCCCNc1ccc([N+](=O)[O-])cc1S(=O)(=O)N(C)C [Compound 1.15, 2-(hexylamino)-N,N-dimethyl-5-nitro-benzenesulfonamide]	–	–	16	–	–	–
CCCCNc1ccc([N+](=O)[O-])cc1S(=O)(=O)NC [Compound 1.10, 2-(butylamino)-N-methyl-5-nitro-benzenesulfonamide]	Inactive	Inactive	–	–	–	–
CN(C)S(=O)(=O)c1cc([N+](=O)[O-])ccc1NCCC(C)(C)C [Compound 1.17, 2-(3,3-dimethylbutylamino)-N,N-dimethyl-5-nitro-benzenesulfonamide]	Inactive	Inactive	–	–	–	–
CCCCCCCCNc1cc(Cl)c(C(=O)O)cc1S(N)(=O)=O [Compound 2.4, 2-chloro-4-(octylamino)-5-sulfamoyl-benzoic acid]	–	–	14	–	–	–
CCCCNc1ccc(C(=O)O)cc1S(=O)(=O)N(C)C [Compound 3.11, 4-(butylamino)-3-(dimethylsulfamoyl)benzoic acid]	–	–	9	8	8	–
CCCCCCCCNc1ccc([N+](=O)[O-])cc1S(=O)(=O)N(C)C [Compound 1.16, N,N-dimethyl-5-nitro-2-(octylamino)benzenesulfonamide]	Inactive	Inactive	–	–	–	–
Furosemide [reference compound]	Inactive	Inactive	–	36	36	effect on decrease in fluorescence upon NaCl application in NKCC1-transfected cells (NKCC1 [1]; pre-incubation at 10 μM and 100 μM): effective at 100 μM only; fluorescence increase upon GABA application compared with vehicle (DMSO)-treated controls (NKCC1 [2]; GABA 100 μM, normalized to KCl): significantly reduced
CCCCNc1ccc(C(=O)O)cc1S(=O)(=O)NC [Compound 3.6, 4-(butylamino)-3-(methylsulfamoyl)benzoic acid]	–	–	8	6	6	–
CNS(=O)(=O)c1cc([N+](=O)[O-])ccc1NCCC(C)(C)C [Compound 1.13, 2-(3,3-dimethylbutylamino)-N-methyl-5-nitro-benzenesulfonamide]	–	–	17	–	–	–
CCCCNc1ccc([N+](=O)[O-])cc1S(=O)(=O)N(C)C [Compound 1.14, 2-(butylamino)-N,N-dimethyl-5-nitro-benzenesulfonamide]	Inactive	Inactive	–	–	–	–
CCCCCCNc1cc(Cl)c(C(=O)O)cc1S(N)(=O)=O [Compound 2.3, 2-chloro-4-(hexylamino)-5-sulfamoyl-benzoic acid]	–	–	10	–	–	–
CCCCCCCCNc1ccc([N+](=O)[O-])cc1S(=O)(=O)NC [Compound 1.12, N-methyl-5-nitro-2-(octylamino)benzenesulfonamide]	Inactive	Inactive	–	–	–	–
CCCCCCCCNc1ccc([N+](=O)[O-])cc1S(N)(=O)=O [Compound 1.8, 5-nitro-2-(octylamino)benzenesulfonamide]	–	–	12	–	–	–
CCCCCCNc1ccc([N+](=O)[O-])cc1S(=O)(=O)NC [Compound 1.11, 2-(hexylamino)-N-methyl-5-nitro-benzenesulfonamide]	–	–	–	–	–	inhibition at 10 µM (NKCC1 [1]; Table 2): 3.4%
